How the values were obtained:
Assay type in all cases: cell-based, human
[1] = system: Pgp+ (DiOC2(3)-dye effluxing) T cells; assay: DiOC2(3) dye efflux flow cytometry of inhibitor-treated T cells; details: treatment for 13 days, IL2 + CD3 and CD28 antibodies
Protocol: (§1) The use of P-glycoprotein (Pgp)-mediated efflux of DiOC2(3) to isolate stem like T cells for adoptive cellular therapy has been described in application no. […] In the following examples, DiOC2(3) staining was used to study the effect of different inhibitors on generation of stem like T cells.
(§2) DAY 0: Blood was obtained from unidentified donor. After RBC lysis, PBMC were collected using Ficoll-Hypaque separation. […] T cells were cultured in three different conditions: • 1. XVIVO 15 medium (Lonza) with IL2 50 IU/ml, CD3 antibody (30 ng/ml) and CD28 antibody (30 ng/ml). • 2. XVIVO 15 medium (Lonza) with CD3 antibody (30 ng/ml) and CD28 antibody (30 ng/ml). • 3. XVIVO 15 medium (Lonza) with IL2 50 IU/ml DAY 1: Cells were plated in a 6-well plate at a density of 1 million cells in 2 ml/of media (as described above) and treated with different inhibitors
(§3) The cell growth medium was changed in 6-well plates and fresh drugs were added at same concentration for one more week.
(§4) […] (DAY 11): Culture medium was changed and fresh drugs were added in 6-well plates.
(§5) Subsequently, cells were washed with RPMI medium and dye was effluxed at 37° C. for 90 min. Cells were washed with […], stained with CD62L-APC (5 μl/100 μl/sample) at 4° C. for 1 h, washed twice with PBS+1% FBS and analyzed on flow cytometer to check if these drugs treatment leads to increase in Pgp+/CD62L positive population.
(§6) Day 0: Blood was obtained from unidentified donor. After RBC lysis, PBMC were collected using Ficoll-Hypaque separation. 200 million T cells were isolated from PBMCs using CD3 microbeads. T cells were cultured overnight in XVIVO 15 medium (Lonza) with IL2 (50 IU/ml), 30 ng/ml of CD3 and CD28 antibodies
(§7) Day 1: Cells were plated in 24-well plates at a density of 0.3 million cells/ml in each well and treated with different drugs.
(§8) On day 7, culture medium was replaced with fresh medium with fresh drugs.
(§9) On day 13, culture medium was replaced with fresh medium and fresh drugs. Half of the cells were transferred to 6-well plates.
(§10) Day 14: An aliquot of cells with all the treatments listed above (for 13 days) was used to stain the cells with DiOC2(3) (60 ng/ml in RPMI medium) at 4° C. for 40 min, washed with RPMI medium, DiOC2(3) dye was effluxed at 37° C. for 90 min, washed with PBS+1% FBS, stained with CD62L-APC antibody. CD62L is a marker for resting T cells. (5 μl/100 μl/sample) at 4° C. for 1 h, washed twice with PBS+1% FBS and analyzed on flow cytometer to check if these drugs are affecting the dye-effluxing or Pgp+ (i.e., DiOC2(3)-dull) T-cell population.

[2] = system: Pgp+ (DiOC2(3)-dye effluxing cells) and CD62L+ T cells; assay: DiOC2(3) dye efflux plus CD62L-APC staining, flow cytometry of inhibitor-treated T cells; details: treatment for 13 days, IL2 + CD3 and CD28 antibodies
Protocol: as §1, §2, §3, §4, §5, §6, §7, §8, §9, §10

[3] = system: CD8+CD45RA+CCR7+CD62L+ T cells; assay: Flow cytometry for CD8, CD45RA, CCR7 and CD62L on inhibitor-treated T cells; details: cells cultured for 14 days
Protocol: as §2
(§11) A second aliquot of the cells cultured for 13 days with all the treatments listed above (1-21) was washed with PBS+1% FBS, stained with CD8-PerCP, CD45RA-FITC, CCR7-PE and CD62L-APC (5% Y/100 μl/sample for each of 4 antibodies) at 4° C. for 1 h, washed twice with PBS+100 FBS and analyzed on flow cytometer to check if these drugs are enriching T stem cells showing surface expression of CD8+CD45RA+CCR7+CD62L+.
as §6, §7, §8, §9
as §11, with “14” for “13”, “above” for “above (1-21)”, “(5 ul/100 ul/sample” for “(5% Y/100 μl/sample”, “PBS+1%” for “PBS+100”, “enriching for” for “enriching”, “T” for “T stem”

[4] = system: CD45RA+CCR7+CD62L+ T cells; assay: Flow cytometry for CD45RA, CCR7 and CD62L on inhibitor-treated T cells (all T cells); details: cells cultured for 14 days
Protocol: as §2, §11, §6, §7, §8, §9
as §11, with “14” for “13”, “above” for “above (1-21)”, “(5 ul/100 ul/sample” for “(5% Y/100 μl/sample”, “PBS+1%” for “PBS+100”, “enriching for” for “enriching”, “T” for “T stem”

SMILES	p2: pgp+ from Live cells ([1]; 1 μM)	p2: pgp+ from Live cells ([1]; 2 μM)	p5: double +ve pgp+ and CD62L-APC+ from Live cells ([2]; 1 μM)	p5: double +ve pgp+ and CD62L-APC+ from Live cells ([2]; 2 μM)	GATE P4 CD8(PerCP)+, CD45RA(FITC)+, CCR7 (PE)+, CD62L(APC) ([3]; 1 μM) [%]	GATE P4 CD8(PerCP)+, CD45RA(FITC)+, CCR7 (PE)+, CD62L(APC) ([3]; 2 μM) [%]	GATE P6 CD45RA(FITC)+, CCR7 (PE)+, CD62L(APC) ([4]; 1 μM) [%]	GATE P6 CD45RA(FITC)+, CCR7 (PE)+, CD62L(APC) ([4]; 2 μM) [%]	p2: pgp+ from Live cells ([1]; 500 nM)	p5: double +ve pgp+ and CD62L-APC+ from Live cells ([2]; 500 nM)	GATE P4 CD8(PerCP)+, CD45RA(FITC)+, CCR7 (PE)+, CD62L(APC) ([3]; 500 nM) [%]	GATE P6 CD45RA(FITC)+, CCR7 (PE)+, CD62L(APC) ([4]; 500 nM) [%]
Cc1cc(C)c(CNC(=O)c2cc(-c3ccc(N4CCN(C)CC4)nc3)cc3c2c(C)cn3C(C)C)c(=O)[nH]1 [GSK503]	47.87	56.13	15.79	19.99	75.24	75.8	63.54	62.62				
CCn1cc(-c2cccc(C(F)(F)F)c2)c2sc(C(=N)NC3CCS(=O)(=O)CC3)cc2c1=O [IBRD9]	31.69		7.26		79.18		67.77		21.12	4.51	74.3	61.53
